The record followed here is patent US20230416205A1, “COMPOUNDS, COMPOSITIONS, AND METHODS” (Denali Therapeutics Inc, priority 2020, published 2023).

This test concerns NLRP3. As to the kind of experiment: IL-1β secretion assay in PMA-differentiated, LPS/nigericin-stimulated THP-1 cells (384-well, ELISA read-out). It is filed as cell-based, human. The protocol:
Compounds as provided herein were tested in the following assay. Cell culture medium employed contained RPMI 1640 medium (89%), FBS (10%), Pen/Strep (1%), and 2-mercaptoethanol (0.05 mM). Freezing medium was made up of 90% FBS and 10% DMSO. THP-1 cells were removed from the liquid nitrogen and placed into a 37° C. water bath to thaw, until signs of ice dissipated. The cells were then added to 9 mL of warm cell culture medium and centrifuged for 5 minutes at 1000 rpm. The supernatant was discarded, and the cells were resuspended in new cell culture medium. THP-1 cells were then split and cultured in the cell culture medium, being passaged every 2-3 days with the cell density will be maintained between 5×10^5 and 1.5×10^6 viable cells/mL.
To freeze, cells were resuspended with fresh freezing medium, adjusting the cell density to 5×10^6 cells/mL. The cell suspension was partitioned into 1 mL aliquots per vial, and the vials were transferred to a −80° C. freezer. After one day at −80° C., the cell vials were transferred to liquid nitrogen freezer for storage.
PMA was dissolved in DMSO to make a stock solution at 5 mg/mL and stored in 10 μl aliquots at −20° C. for single use. PMA is added to normal growth medium. LPS was diluted with 1 mL of water solution to provide a 1 mg/mL stock solution and stored in 15 μl aliquots at −20° C. for single use. Nigericin is diluted in ice cold 100% ethanol to 5 mg/mL (6.7 mM) and stored in 75 μL aliquots at −20° C. for single use. Serum-free media contains RPMI 1640 medium (99%), Pen/Strep (1%), and 2-mercaptoethanol (0.05 mM). The two control conditions used to qualify and normalize test compound dose-response curves were as follows: High Control=25 ng/mL LPS, 5 μM Nigericin, 0.5% DMSO, Low Control=25 ng/mL, LPS, 0.5% DMSO.
THP-1 cells were diluted to provide a suspension at a concentration of 1.0×10^6 cells/mL with the total volume of suspension required to enable the desired number of assay plates. The growth media was supplemented with PMA (5 ng/mL final concentration) and the cells were incubated at 37° C. under a humidified atmosphere of 5% CO2 for 40 h.
All media was carefully aspirated from each culture flask. The cells were washed carefully with 1×DPBS. The cells were then briefly digested with trypsin LE for 5 minutes at 23° C., and immediately resuspended in cell growth media. After resuspension, the cells were centrifuged at 1000 rpm for 3 minutes and the supernatant was discarded. The cells were resuspended in DPBS and once again centrifuged at 1000 rpm for 5 minutes. The supernatant was discarded and the cell pellet was resuspended in serum-free media supplemented with LPS (25 ng/mL final concentration) to enable the distribution of 30K THP-1 cells within 45 μL of media into each well of 384-well PDL-coated plates. The 384-well plates were then incubated at 37° C. under a humidified atmosphere of 5% CO2 for 2 h. Following this period, test compounds were dispensed by Tecan across the desired concentration range with all wells normalized to a final 0.5% DMSO concentration. The plates were then incubated at 37° C. under a humidified atmosphere of 5% CO2 for 1 h. Following this period, 5 μL of the […] was added to each of the appropriate wells and plates were centrifuged at 1000 rpm for 30 seconds. The plates were the immediately reintroduced to the incubator at 37° C. under a humidified atmosphere of 5% CO2 for 2 h. After this time, 35 μL/well of supernatant was collected and transferred into v-bottom plate and centrifuged at 1000 rpm for 1 minute. These supernatant aliquots were analyzed using an IL-Iβ detection kit as described below. If needed, the test samples could be snap frozen and stored at −80° C. until analyzed.
To prepare each ELISA plate, capture antibody (mAb Mt175) was diluted with PBS to a final concentration of 2 μg/mL and then 20 μL of this solution was added to each well of the ELISA plate. Each plate was allowed to incubate overnight at 4° C.
(ELISA stands for enzyme-linked immunosorbent assay.)

[1] abbreviates: Homo sapiens, THP-1, IL-1β secretion, PMA-differentiated THP-1 cells, LPS then nigericin stimulation, ELISA read at 450 nm, read-out: Activity.
Setting [2] is: Homo sapiens, THP-1, Table 4, IL-1β secretion, LPS/nigericin-stimulated THP-1 cells, read-out: IC50.
Setting [3] is: IL-1β secretion, PMA-differentiated THP-1 cells, LPS then nigericin stimulation, ELISA read at 450 nm, read-out: Activity.
[4] abbreviates: Table 4, IL-1β secretion, LPS/nigericin-stimulated THP-1 cells, read-out: IC50.

Molecules are shown by their SMILES. Read-outs that look alike come from different tables or passages of the source.

Consider `O=C(CN1CC2(CC2)c2cc(Br)ccc2C1=O)NC12CCC(CC1)OC2` [Example 51, 2-(6-bromo-1-oxo-spiro[3H-isoquinoline-4,1′-cyclopropane]-2-yl)-N-(2-oxabicyclo[2.2.2]octan-4-yl)acetamide], for which the IC50 under setting [1] is 10 to 15 µM and the IC50 under setting [2] came to 9.07 µM.

In the case of `N#CC1CC(NC(=O)CN2CC3(CC3)c3cc(Br)ccc3C2=O)C1` (stereo not shown) [Example 65, 2-(6-bromo-1-oxo-spiro[3H-isoquinoline-4,1′-cyclopropane]-2-yl)-N-(3-cyanocyclobutyl)acetamide], the IC50 reads like this: under setting [1], under 10 µM; under setting [2], 6.86 µM.

As to `O=C(CN1CC2(CC2)c2cc(Br)ccc2C1=O)Nc1ncc(C(F)(F)F)cc1F` [Example 9], the IC50 was under 10 µM under setting [1] and 0.4 µM under setting [2]. The corresponding values for `O=C(CN1CC2(CC2)c2nc(C(F)(F)F)ccc2C1=O)Nc1ncccn1` [Example 31, 2-[5-oxo-2-(trifluoromethyl)spiro[7H-1,6-naphthyridine-8,1′-cyclopropane]-6-yl]-N-pyrimidin-2-ylacetamide] are under 10 µM and 2.41 µM. The corresponding values for `O=C(CN1CC2(CC2)c2cc(Br)ccc2C1=O)Nc1ncc(OC(F)F)cn1` [Example 270, 2-(6-bromo-1-oxospiro[3H-isoquinoline-4,1′-cyclopropane]-2-yl)-N-[5-(difluoromethoxy)pyrimidin-2-yl]acetamide] are under 10 µM and 0.286 µM. `C[C@H]1C[C@]12CN(CC(=O)Nc1ncc(F)cn1)C(=O)c1ccc(Br)cc12` (single isomer, unassigned) [Example 280, 2-[(2′s,4s)-6-bromo-2′-methyl-1-oxospiro[3H-isoquinoline-4,1′-cyclopropane]-2-yl]-N-(5-fluoropyrimidin-2-yl)acetamide]: the IC50 was under 10 µM under setting [3] and 2.37 µM under setting [4]. For `O=C(CN1CC2(CC2)c2cc(Br)ccc2C1=O)Nc1nc2ccc(Cl)cn2n1` [Example 264, 2-(6-bromo-1-oxospiro[3H-isoquinoline-4,1′-cyclopropane]-2-yl)-N-(6-chloro-[1,2,4]triazolo[1,5-a]pyridin-2-yl)acetamide], the IC50 is under 10 µM under setting [1] and 0.312 µM under setting [2]. Take `O=C(CN1CC2(CC2(F)F)c2cc(Br)ccc2C1=O)Nc1ncc(F)cn1` (single isomer, unassigned) [Example 291, 2-[6-bromo-1′,1′-difluoro-1-oxospiro[3H-isoquinoline-4,2′-cyclopropane]-2-yl]-N-(5-fluoropyrimidin-2-yl)acetamide]: the IC50 is, setting by setting: under setting [3], under 10 µM; under setting [4], 0.037 µM. Take `CN1CCC[C@@H](NC(=O)CN2CC3(CC3)c3cc(Br)ccc3C2=O)C1` [Example 360, 2-(6-bromo-1-oxospiro[3H-isoquinoline-4,1′-cyclopropane]-2-yl)-N-[(3R)-1-methylpiperidin-3-yl]acetamide]: the IC50 under setting [2] turned out to be 3.46 µM. Turning to `O=C(CN1CC2(CC2)c2cc(Br)ccc2C1=O)Nc1cncc2ccccc12` [Example 153, 2-(6-bromo-1-oxospiro[3H-isoquinoline-4,1′-cyclopropane]-2-yl)-N-isoquinolin-4-ylacetamide], the IC50 was over 15 µM under setting [1] and 32.9 µM under setting [2]. The corresponding values for `O=Cc1cnc(NC(=O)CN2CC3(CC3)c3cc(Br)ccc3C2=O)c(F)c1` [Example 37, 2-(6-bromo-1-oxo-spiro[3H-isoquinoline-4,1′-cyclopropane]-2-yl)-N-(3-fluoro-5-formyl-2-pyridyl)acetamide] are under 10 µM and 1.32 µM.

On to `O=C(CN1CC2(CC2)c2cc(Br)ccc2C1=O)Nc1nc2ccccn2c1F` [Example 343, 2-(6-bromo-1-oxospiro[3H-isoquinoline-4,1′-cyclopropane]-2-yl)-N-(3-fluoroimidazo[1,2-a]pyridin-2-yl)acetamide], for which the IC50 under setting [2] was found to be 7.5 µM. For `O=C(CN1CC2(CC2)c2cc(C3CC3)ccc2C1=O)Nc1ncc(Cl)cn1` [Example 34, N-(5-chloropyrimidin-2-yl)-2-(6-cyclopropyl-1-oxo-spiro[3H-isoquinoline-4,1′-cyclopropane]-2-yl)acetamide], the IC50 runs as follows: under setting [1], under 10 µM; under setting [2], 0.137 µM. In the same order, the values of `O=C(CN1CC2(CC2)c2cc(Br)ccc2C1=O)Nc1ncc(C2CCOC2)cn1` (stereo not shown) [Example 258, 2-(6-bromo-1-oxospiro[3H-isoquinoline-4,1′-cyclopropane]-2-yl)-N-[5-(oxolan-3-yl)pyrimidin-2-yl]acetamide] are under 10 µM and 0.526 µM. In the same order, the values of `O=C(CN1CC2(CC2)c2cc(Br)ccc2C1=O)NC1CC2(COC2)C1` [Example 61, 2-(6-bromo-1-oxo-spiro[3H-isoquinoline-4,1′-cyclopropane]-2-yl)-N-(2-oxaspiro[3.3]heptan-6-yl)acetamide] are under 10 µM and 2.75 µM.

On to `O=C(CN1CC2(CC2)c2cc(Br)ccc2C1=O)Nc1nc2cnccc2o1` [Example 210, 2-(6-bromo-1-oxo-spiro[3H-isoquinoline-4,1′-cyclopropane]-2-yl)-N-oxazolo[4,5-c]pyridin-2-yl-acetamide], for which the IC50 is under 10 µM under setting [1] and 0.822 µM under setting [2]. The corresponding values for `O=C(CN1CC2(CC2)c2cc(C(F)F)ccc2C1=O)Nc1ncc(F)cn1` [Example 96, 2-[6-(difluoromethyl)-1-oxospiro[3H-isoquinoline-4,1′-cyclopropane]-2-yl]-N-(5-fluoropyrimidin-2-yl)acetamide] are under 10 µM and 1.33 µM.

For the compound `O=C(CN1CC2(CC2)c2cc(Br)ccc2C1=O)Nc1ncc(F)cc1F` [Example 12], the IC50 was under 10 µM under setting [1] and 0.588 µM under setting [2]. Regarding `O=C(CN1CC2(CC2)c2cc(Br)ccc2C1=O)Nc1cc2n(n1)CCOC2` [Example 362, 2-(6-bromo-1-oxospiro[3H-isoquinoline-4,1′-cyclopropane]-2-yl)-N-(6,7-dihydro-4H-pyrazolo[5,1-c][1,4]oxazin-2-yl)acetamide], the IC50 under setting [2] was 1.45 µM. For `Cc1cnc(NC(=O)CN2CC3(CC3)c3cc(Br)ccc3C2=O)nc1C` [Example 217, 2-(6-bromo-1-oxospiro[3H-isoquinoline-4,1′-cyclopropane]-2-yl)-N-(4,5-dimethylpyrimidin-2-yl)acetamide], the IC50 is, setting by setting: under setting [1], under 10 µM; under setting [2], 0.862 µM. Take `CCN1CC(NC(=O)CN2CC3(CC3)c3cc(Br)ccc3C2=O)CCC1=O` (stereo not shown) [Example 62, 2-(6-bromo-1-oxo-spiro[3H-isoquinoline-4,1′-cyclopropane]-2-yl)-N-(1-ethyl-6-oxo-3-piperidyl)acetamide]: the IC50 was 10 to 15 µM under setting [1] and 12.1 µM under setting [2]. In the same order, the values of `CCN1CCCC(NC(=O)CN2CC3(CC3)c3cc(Br)ccc3C2=O)C1` (stereo not shown) [Example 18, 2-(6-bromo-1-oxospiro[3H-isoquinoline-4,1′-cyclopropane]-2-yl)-N-(1-ethylpiperidin-3-yl)acetamide] are under 10 µM and 1.45 µM. The corresponding values for `O=C(CN1CC2(CC2)c2cc(Br)ccc2C1=O)Nc1ccc(F)cn1` [Example 208, 2-(6-bromo-1-oxospiro[3H-isoquinoline-4,1′-cyclopropane]-2-yl)-N-(5-fluoropyridin-2-yl)acetamide] are under 10 µM and 0.709 µM.
